Experimental data from patent publication US4839387A, “Derivative of thiazolidine-4-carboxylic acid, its preparation and pharmaceutical compositions containing it” (Poli Industria Chimica S.P.A., priority 1987, dated 1989).
Non-standard residues stand in square brackets, D forms with d. Residues, ends and D or L forms follow the SMILES beside them. pGlu = O=C1CC[C@@H](C(=O)O)N1; Thz = O=C(O)[C@@H]1CSCN1

Tests used:
old rat = test: Neurocerebral performances in the old rat; type: in vivo; settings: 10 mg/kg and even more at 50 mg/kg
Male Wistar rats [1] = test: Paracetamol intoxication in the rat, test after single i.p. administration; type: in vivo; settings: for Death rate % / % distribution of liver impairment degrees: degree 0 / % distribution of liver impairment degrees: degree 1 / % distribution of liver impairment degrees: degree 2 / % distribution of liver impairment degrees: degree 3: single administration; for Death rate %: 48 hours after paracetamol 5000 mg/kg oral; for % distribution of liver impairment degrees: degree 0: degree 0 = normal histologic examination; for % distribution of liver impairment degrees: degree 1: degree I = centrolobular necrosis less than 25% of the lobule; for % distribution of liver impairment degrees: degree 2: degree II = extended centrolobular necrosis; for % distribution of liver impairment degrees: degree 3: degree III = massive necrosis
Source text: (§1) Male Wistar rats, mean weight of 150±10 g were used, which, after suitable housing, were subjected to the test:
(a) Test after single i.p. administration
The animals were divided in 7 groups, comprising 20 animals each, according to the following scheme:
II group: PGTCA 4.1 μmoles/kg i.p.
III group: PGTCA 41 μmoles/kg i.p.
IV group: PGTCA 205 μmoles/kg i.p.
V group: PGA 4.1 μmoles/kg +TCA 4.1 μmoles/kg
VI group: PGA 41 μmoles/kg +TCA 41 μmoles/kg
VII group: PGA 205 umoles/kg +TCA 205 μmoles/kg.
The animals of each group, fasting since 12 hours, were treated with paracetamol at the dose of 5000 mg/kg by the oral route. The different pharmacological treatments were carried out contemporaneously with the paracetamol administration. After 48 hours from treatment, the death-rate was assessed in the various experimental groups. The liver was taken from the surviving animals, sacrificed by decapitation, and from the dead animals and an histopathologic examination was carried out.
The degree of liver impairment has been evaluated as: degree O: normal histologic examination degree I: centrolobular necrosis extended to less than 25% of the lobule degree II: extended centrolobular necrosis, with lesions bridging adjacent centrolobular areas degree III: massive necrosis.
(§2) In order to evaluate the lesion degree, 6 different sections were taken from each organ.

[2] = system: T-lymphocyte response to concanavaline A; test: Test of blastization with ConA (3H-thymidine incorporation) after in vivo treatment; parameters: species or system rat; settings: for 3H-thymidine cpm/well: ConA 2.5 μg/ml; for 3H-thymidine increase %: versus untreated
Experimental: (§3) For this purpose, male adult rats (5-6 months old) were used as animal model with normal immuno-competent system, and old rats (17-18 months) as a paraphysiological immunodeficiency model.
(§4) The PGTCA treatment has been carried out i.p. at the dose of 1, 10 or 50 mg/kg twice a day for 4 weeks. The used immunological tests were the delayed-type hypersensitivity induced by dinitrochlorobenzene (DNCB) and the T-lymphocyte response to concanavaline A (ConA).
After 4 weeks of PGTCA treatment at the doses of 1,10 and 50 mg/kg, the animals were sacrificed and the spleen was removed in sterile conditions. The isolation of lymphocytes was obtained by an isolimph gradient. The lymphocytes were incubated in micro-walls, at the concentration of 1×10^6 cells/ml, in the presence of ConA (2.5 μg/ml), for 48 hours. The mitogen activity was evaluated by incorporation of ^3 H-thymidine for 16 hours.

male rat = test: Sexual behaviour of the male rat; type: in vivo; settings: latencies and frequences of sexual acts
male rats = test: Delayed-type hypersensitivity induced by dinitrochlorobenzene (DNCB); type: in vivo, rat
Experimental: as §3, §4
After 4 weeks of PGTCA pre-treatment (or vehicle), 0.02 ml of DNCB (solubilized in acetone at the concentration of 200 mg/ml) was applied to each animal (5 rats per group) on the cutis of the back, on an area of about 1 cm^2. The subsequent inflammatory reaction was evaluated by measuring the diameter of the reddish area by means of a thickness gauge from day 1 to day 7.
During this period the animals were constantly treated.

Male Wistar rats [3] = test: Paracetamol intoxication in the rat, test after repeated i.p. administration; type: in vivo; settings: for Death rate %: repeated administration (daily for 8 days and on), 48 hours after paracetamol 5000 mg/kg per os; for % distribution of liver impairment degrees: degree 0 / % distribution of liver impairment degrees: degree 1 / % distribution of liver impairment degrees: degree 2 / % distribution of liver impairment degrees: degree 3: repeated administration; for % distribution of liver impairment degrees: degree 0: degree 0 = normal histologic examination; for % distribution of liver impairment degrees: degree 1: degree I = centrolobular necrosis less than 25% of the lobule; for % distribution of liver impairment degrees: degree 2: degree II = extended centrolobular necrosis; for % distribution of liver impairment degrees: degree 3: degree III = massive necrosis
Source text: as §1
The degree of liver impairment has been evaluated as: degree O: normal histologic examination […]
degree II: extended centrolobular necrosis, with lesions bridging adjacent centrolobular areas degree III: massive necrosis.
as §2
(b) Test after repeated i.p. administration
The same treatment schedule as in (a) was used.
The animals of groups II-VII were treated daily for 8 days. At the 8th day, contemporaneously to the various considered pharmacological treatments, the animals of the 7 groups (fasting since 12 hours) were administered with paracetamol (5000 mg/kg per os).
After 48 hours from the paracetamol administration, the surviving animals were examined and the liver was subjected to the histopathologic examination.

[4] = system: T cells forming rosettes with sheep red blood cells; test: T-cells forming rosette with sheep red blood cells; type: in vivo, mouse; settings: for No. rosette/10^6 spleen cells Var. %: versus controls
Experimental: In the mouse, a cytotoxic-kind of hypersensivity reaction, evaluated in the test of T cells forming rosettes with sheep red blood cells, was used (S.D. Wilson Immunology, 1971, 21, 233). […]
CD-I male mice weighing about 25 g are treated with PGTCA for 8 days. After 4 days from the start of the treatment the animals were immunized with 5×10^8 sheep red blood cells in 0.2 ml of PBS i.p. The rosette test was carried out 6 days after the immunization. The mice were killed and the spleen was removed and placed in ice cold Hank solution, triturated, homogenized and gauze filtered.
6×10^7 /ml of spleen cells +100 /μl of red blood cell suspension 3×10^8 /μul were mixed in 0.8 ml of Hank and stirred for 1 min.
The samples were incubated for 24 h at 4° C. without stirring and then, after stirring, the number of rosette forming cells/ml was determined by the Burker apparatus.

Swiss male mice = test: Effects on the consequences of exposure to ionizing radiation; type: in vivo, mouse; settings: for Death-rate % 10 gg: 10 days after 700 r of x rays; for Death-rate % 15 gg: 15 days after 700 r of x rays
Experimental: Swiss male mice weighing 30±5 g, divided in 7 groups of 20 animals each, were used according to the above reported schedule.
The pharmacological treatments were carried out for 15 days before the irradiation and prosecuted up to the end of the experiment. The control animals received the vehicle alone.
At the 15th day, all the animals were irradiated (Philip Metalix® apparatus, 180 KV, 15 mA, with Cu filter 0.5 mm +AI mm) with the administration of 700 r of x rays.
All the animals were checked daily, for 15 days after irradiation. The radio-protection degree was calculated as survival % at 10 and 15 days.

[5] = at the highest and at the intermediate dose
[6] = Mice not sensitized with red blood cells, 100 mg/kg b.i.d. i.p. for 8 days
[7] = PGTCA 4.1 microm/kg ip from 15 days before irradiation
[8] = PGTCA 41 microm/kg ip from 15 days before irradiation
[9] = PGTCA 205 microm/kg ip from 15 days before irradiation

In the case of `O=C1CC[C@@H](C(=O)N2CSC[C@H]2C(=O)O)N1` [PGTCA, 3-L-pyroglutamyl-Lthiazolidine-4-carboxylic acid] ([pGlu]-[Thz]-OH), the “improving the neurocerebral performances” value (old rat) is reported as “active”, the “liver impairment by an high dose of paracetamol” value (Male Wistar rats [1]; acute treatment, 205 μmoles/kg i.p. and 41 μmoles/kg i.p.) is reported as “significant decrease” and the death-rate by paracetamol (Male Wistar rats [1]; [5]) is reported as “reduces the death-rate”. The Death rate % (Male Wistar rats [1]; PGTCA 4.1 microm/kg ip) was 85%, the “% distribution of liver impairment degrees: degree 0” value (“% distribution … degree 0” for short) (Male Wistar rats [1]; PGTCA 4.1 microm/kg ip) was 0% and the “% distribution of liver impairment degrees: degree 1” value (“% distribution … degree 1” below) (Male Wistar rats [1]; PGTCA 4.1 microm/kg ip) was 0%. For the same molecule, the “% distribution of liver impairment degrees: degree 2” value (shortened to “% distribution … degree 2”) (Male Wistar rats [1]; PGTCA 4.1 microm/kg ip) was 10%, the “% distribution of liver impairment degrees: degree 3” value (“% distribution … degree 3” for short) (Male Wistar rats [1]; PGTCA 4.1 microm/kg ip) was 90% and the Death rate % (Male Wistar rats [1]; PGTCA 41 microm/kg ip) was 75%. The “% distribution … degree 0” value (Male Wistar rats [1]; PGTCA 41 microm/kg ip) was 0%, the “% distribution … degree 1” value (Male Wistar rats [1]; PGTCA 41 microm/kg ip) was 5% and the “% distribution … degree 2” value (Male Wistar rats [1]; PGTCA 41 microm/kg ip) was 20%. For the same molecule, the “% distribution … degree 3” value (Male Wistar rats [1]; PGTCA 41 microm/kg ip) was 75%, the Death rate % (Male Wistar rats [1]; PGTCA 205 microm/kg ip) was 60% and the “% distribution … degree 0” value (Male Wistar rats [1]; PGTCA 205 microm/kg ip) was 5%. For the same molecule, the “% distribution … degree 1” value (Male Wistar rats [1]; PGTCA 205 microm/kg ip) was 15%, the “% distribution … degree 2” value (Male Wistar rats [1]; PGTCA 205 microm/kg ip) was 15% and the “% distribution … degree 3” value (Male Wistar rats [1]; PGTCA 205 microm/kg ip) was 65%. It also gave a 3H-thymidine cpm/well ([2]; Adult rats (5-6 months), 1 mg/kg i.p. twice a day for 4 weeks) of 31806 ± 970 cpm/well, a 3H-thymidine increase % ([2]; Adult rats (5-6 months), 1 mg/kg) of -2.1% and a 3H-thymidine cpm/well ([2]; Adult rats (5-6 months), 10 mg/kg i.p. twice a day for 4 weeks) of 34165 ± 540 cpm/well. The 3H-thymidine increase % ([2]; Adult rats (5-6 months), 10 mg/kg) was “+5.1%”, the 3H-thymidine cpm/well ([2]; Adult rats (5-6 months), 50 mg/kg i.p. twice a day for 4 weeks) was 35785 ± 240 cpm/well and the 3H-thymidine increase % ([2]; Adult rats (5-6 months), 50 mg/kg) was “+10.1%”. The 3H-thymidine cpm/well ([2]; Old rats (17-18 months), 1 mg/kg i.p. twice a day for 4 weeks) was 23553 ± 923 cpm/well, the 3H-thymidine increase % ([2]; Old rats (17-18 months), 1 mg/kg) was “+1.6%” and the 3H-thymidine cpm/well ([2]; Old rats (17-18 months), 10 mg/kg i.p. twice a day for 4 weeks) was 26012 ± 316 cpm/well. The 3H-thymidine increase % ([2]; Old rats (17-18 months), 10 mg/kg) was “+12.3%”, the 3H-thymidine cpm/well ([2]; Old rats (17-18 months), 50 mg/kg i.p. twice a day for 4 weeks) was 27540 ± 439 cpm/well and the 3H-thymidine increase % ([2]; Old rats (17-18 months), 50 mg/kg) was “+18.9%”. For the same molecule, the sexual behaviour (male rat) was “favourable influence”, the “response to DNCB, evaluated as inflammation area” value (male rats; old animals, already at the dose of 10 mg/kg) was “maximum enhancing increase” and the “response to DNCB, evaluated as inflammation area” value (male rats; young animals, only at the dose of 50 mg/kg) was “significant increase”. It also gave a Death rate % (Male Wistar rats [3]; PGTCA 4.1 microm/kg ip) of 85%, a Death rate % (Male Wistar rats [3]; PGTCA 41 microm/kg ip) of 70% and a Death rate % (Male Wistar rats [3]; PGTCA 205 microm/kg ip) of 50%. The “% distribution … degree 0” value (Male Wistar rats [3]; PGTCA 4.1 microm/kg ip) was 0%, the “% distribution … degree 1” value (Male Wistar rats [3]; PGTCA 4.1 microm/kg ip) was 0% and the “% distribution … degree 2” value (Male Wistar rats [3]; PGTCA 4.1 microm/kg ip) was 10%. The “% distribution … degree 3” value (Male Wistar rats [3]; PGTCA 4.1 microm/kg ip) was 90%, the “% distribution … degree 0” value (Male Wistar rats [3]; PGTCA 41 microm/kg ip) was 0% and the “% distribution … degree 1” value (Male Wistar rats [3]; PGTCA 41 microm/kg ip) was 0%. For the same molecule, the “% distribution … degree 2” value (Male Wistar rats [3]; PGTCA 41 microm/kg ip) was 35%, the “% distribution … degree 3” value (Male Wistar rats [3]; PGTCA 41 microm/kg ip) was 65% and the “% distribution … degree 0” value (Male Wistar rats [3]; PGTCA 205 microm/kg ip) was 5%. For the same molecule, the “% distribution … degree 1” value (Male Wistar rats [3]; PGTCA 205 microm/kg ip) was 15%, the “% distribution … degree 2” value (Male Wistar rats [3]; PGTCA 205 microm/kg ip) was 25% and the “% distribution … degree 3” value (Male Wistar rats [3]; PGTCA 205 microm/kg ip) was 55%. For the same molecule, the “No. rosette/10^6 spleen cells m ± E.S.” value [4, 6] was 790 ± 170 rosette/10^6 spleen cells, the “No. rosette/10^6 spleen cells Var. %” value [4, 6] was -12% and the “No. rosette/10^6 spleen cells Var. %” value ([4]; Mice sensitized with red blood cells, 100 mg/kg b.i.d. i.p. for 8 days) was “+41%”. For the same molecule, the “rosette number in comparison with the control” value ([4]; not sensitized animals) was “no significant change”, the “rosette number in comparison with the control” value ([4]; sensitized animals) was “significant increase” and the “Death-rate % 10 gg” value (Swiss male mice; [7]) was 20%. For the same molecule, the “Death-rate % 10 gg” value (Swiss male mice; [8]) was 15%, the “Death-rate % 10 gg” value (Swiss male mice; [9]) was 10% and the “Death-rate % 15 gg” value (Swiss male mice; [7]) was 45%. For the same molecule, the “Death-rate % 15 gg” value (Swiss male mice; [8]) was 20%, the “Death-rate % 15 gg” value (Swiss male mice; [9]) was 15% and the radioprotective activity (Swiss male mice; [5]) was “remarkable radioprotective activity”.
